# Experimental data reported in ChEMBL document CHEMBL2440076, “New triarylpyrazoles as broad-spectrum anticancer agents: design, synthesis, and biological evaluation” (Eur J Med Chem, 2013).
# What was measured:
# [1] = Growth inhibition of human HCC2998 cells assessed as cell growth at 5X10'-6 M after 48 hrs by sulforhodamine B assay; type: functional; details: HCC 2998, 48 h, read-out: Activity
# Malme-3M = experiment: Growth inhibition of human MALME-3M cells assessed as cell growth at 5X10'-6 M after 48 hrs by sulforhodamine B assay; type: functional; details: read-out: Activity
# MDA-MB-231 = experiment: Growth inhibition of human MDA-MB-231 cells assessed as cell growth at 10 uM after 48 hrs by sulforhodamine B assay; type: functional; details: MDA-MB-231, 48 h, read-out: Activity
# U-251 = experiment: Growth inhibition of human U251 cells assessed as cell growth at 5X10'-9 M after 48 hrs by sulforhodamine B assay; type: functional; details: U-251, 48 h, read-out: Activity
# HCT-116 = experiment: Growth inhibition of human HCT116 cells assessed as cell growth at 10 uM after 48 hrs by sulforhodamine B assay; type: functional; details: HCT-116, 48 h, read-out: Activity
# KM12 = experiment: Growth inhibition of human KM12 cells after 48 hrs by sulforhodamine B assay; type: functional, cell-based; details: KM12, 48 h; for CC50: read-out: LC50 (the source's name)
# A498 [2] = experiment: Growth inhibition of human A498 cells assessed as cell growth at 10 uM after 48 hrs by sulforhodamine B assay; type: functional; details: A498, 48 h, read-out: Activity
# A549 = experiment: Growth inhibition of human A549/ATCC cells assessed as cell growth at 5X10'-9 M after 48 hrs by sulforhodamine B assay; type: functional; details: A549, 48 h, read-out: Activity
# UACC-62 = experiment: Growth inhibition of human UACC62 cells assessed as cell growth at 5X10'-5 M after 48 hrs by sulforhodamine B assay; type: functional; details: UACC-62, 48 h, read-out: Activity
# NCI-H460 [3] = experiment: Growth inhibition of human NCI-H460 cells assessed as cell growth at 5X10'-6 M after 48 hrs by sulforhodamine B assay; type: functional; details: NCI-H460, 48 h, read-out: Activity
# SK-MEL-2 = experiment: Growth inhibition of human SK-MEL-2 cells assessed as cell growth at 5X10'-7 M after 48 hrs by sulforhodamine B assay; type: functional; details: SK-MEL-2, 48 h, read-out: Activity
# MOLT-4 = experiment: Growth inhibition of human MOLT4 cells assessed as cell growth at 5X10'-7 M after 48 hrs by sulforhodamine B assay; type: functional; details: MOLT-4, 48 h, read-out: Activity
# UO-31 = experiment: Growth inhibition of human UO31 cells assessed as cell growth at 5X10'-8 M after 48 hrs by sulforhodamine B assay; type: functional; details: UO-31, 48 h, read-out: Activity
# DU-145 = experiment: Growth inhibition of human DU145 cells assessed as cell growth at 5X10'-8 M after 48 hrs by sulforhodamine B assay; type: functional; details: DU-145, 48 h, read-out: Activity
# LOX IMVI = experiment: Growth inhibition of human LOXIMVI cells assessed as cell growth at 5X10'-6 M after 48 hrs by sulforhodamine B assay; type: functional; details: read-out: Activity
# MCF7 [4] = experiment: Growth inhibition of human MCF7 cells assessed as cell growth at 10 uM after 48 hrs by sulforhodamine B assay; type: functional; details: MCF7, 48 h, read-out: Activity
# [5] = Growth inhibition of human NCI-ADR-RES cells assessed as cell growth at 5X10'-5 M after 48 hrs by sulforhodamine B assay; type: functional; details: read-out: Activity
# T47D = experiment: Growth inhibition of human T47D cells after 48 hrs by sulforhodamine B assay; type: functional; details: for CC50: read-out: LC50 (the source's name)
# MCF7 [6] = experiment: Growth inhibition of human MCF7 cells assessed as cell growth at 5X10'-7 M after 48 hrs by sulforhodamine B assay; type: functional; details: MCF7, 48 h, read-out: Activity
# [7] = Growth inhibition of human HCC2998 cells assessed as cell growth at 5X10'-5 M after 48 hrs by sulforhodamine B assay; type: functional; details: HCC 2998, 48 h, read-out: Activity
# NCI-H226 [8] = experiment: Growth inhibition of human NCI-H226 cells assessed as cell growth at 5X10'-9 M after 48 hrs by sulforhodamine B assay; type: functional; details: NCI-H226, 48 h, read-out: Activity
# CCRF-CEM [9] = experiment: Growth inhibition of human CCRF-CEM cells assessed as cell growth at 10 uM after 48 hrs by sulforhodamine B assay; type: functional; details: read-out: Activity
# NCI-H460 [10] = experiment: Growth inhibition of human NCI-H460 cells after 48 hrs by sulforhodamine B assay; type: functional; details: NCI-H460, 48 h
# SF-539 = experiment: Growth inhibition of human SF539 cells after 48 hrs by sulforhodamine B assay; type: functional; details: SF-539, 48 h
# OVCAR-8 = experiment: Growth inhibition of human OVCAR8 cells assessed as cell growth at 5X10'-5 M after 48 hrs by sulforhodamine B assay; type: functional; details: OVCAR-8, 48 h, read-out: Activity
# NCI-H226 [11] = experiment: Growth inhibition of human NCI-H226 cells assessed as cell growth at 5X10'-5 M after 48 hrs by sulforhodamine B assay; type: functional; details: NCI-H226, 48 h, read-out: Activity
# ACHN = experiment: Growth inhibition of human ACHN cells after 48 hrs by sulforhodamine B assay; type: functional; details: for CC50: read-out: LC50 (the source's name)
# COLO 205 [12] = experiment: Growth inhibition of human COLO205 cells assessed as cell growth at 5X10'-6 M after 48 hrs by sulforhodamine B assay; type: functional; details: COLO 205, 48 h, read-out: Activity
# COLO 205 [13] = experiment: Growth inhibition of human COLO205 cells after 48 hrs by sulforhodamine B assay; type: functional; details: COLO 205, 48 h
# [14] = Growth inhibition of human HCC2998 cells assessed as cell growth at 5X10'-8 M after 48 hrs by sulforhodamine B assay; type: functional; details: HCC 2998, 48 h, read-out: Activity
# CCRF-CEM [15] = experiment: Growth inhibition of human CCRF-CEM cells assessed as cell growth at 5X10'-9 M after 48 hrs by sulforhodamine B assay; type: functional; details: read-out: Activity
# HCT-15 = experiment: Growth inhibition of human HCT15 cells assessed as cell growth at 5X10'-6 M after 48 hrs by sulforhodamine B assay; type: functional; details: HCT-15, 48 h, read-out: Activity
# SR = experiment: Growth inhibition of human SR cells after 48 hrs by sulforhodamine B assay; type: functional; details: for CC50: read-out: LC50 (the source's name)
# A498 [16] = experiment: Growth inhibition of human A498 cells assessed as cell growth at 5X10'-9 M after 48 hrs by sulforhodamine B assay; type: functional; details: A498, 48 h, read-out: Activity
# BT-549 = experiment: Growth inhibition of human BT549 cells after 48 hrs by sulforhodamine B assay; type: functional; details: BT-549, 48 h
# CAKI-1 = experiment: Growth inhibition of human CAKI-1 cells assessed as cell growth at 5X10'-8 M after 48 hrs by sulforhodamine B assay; type: functional; details: CAKI-1, 48 h, read-out: Activity
smiles,measurement,setting,value
COc1cc(-c2nn(-c3cccc(NC(=O)Nc4ccc(Cl)c(Cl)c4)c3)cc2-c2ccncc2)ccc1Cl,growth at 5 µM,[1],2%
same,growth at 5 µM,Malme-3M,-38%
same,growth at 10 µM,MDA-MB-231,-40.1%
same,growth at 0.005 µM,U-251,96%
same,growth at 10 µM,HCT-116,8.67%
same,GI50,KM12,811 nM
same,IC50,KM12,810 nM
same,TGI,KM12,2770 nM
same,CC50,KM12,49500 nM
same,growth at 10 µM,A498 [2],-6.82%
same,growth at 0.005 µM,A549,98%
same,growth at 50 µM,UACC-62,-63%
same,growth at 5 µM,NCI-H460 [3],4%
same,growth at 0.5 µM,SK-MEL-2,107%
same,growth at 0.5 µM,MOLT-4,78%
same,growth at 0.05 µM,UO-31,88%
same,growth at 0.05 µM,DU-145,110%
same,growth at 5 µM,LOX IMVI,-32%
same,growth at 10 µM,MCF7 [4],1.73%
same,growth at 50 µM,[5],-9%
same,GI50,T47D,1420 nM
same,TGI,T47D,> 50000 nM
same,CC50,T47D,> 50000 nM
same,growth at 0.5 µM,MCF7 [6],68%
same,growth at 50 µM,[7],-19%
same,growth at 0.005 µM,NCI-H226 [8],98%
same,growth at 10 µM,CCRF-CEM [9],-7.9%
same,GI50,NCI-H460 [10],1110 nM
same,LC50,NCI-H460 [10],> 50000 nM
same,TGI,NCI-H460 [10],> 50000 nM
same,GI50,SF-539,965 nM
same,LC50 (concentration killing 50% of cells),SF-539,> 50000 nM
same,TGI,SF-539,3080 nM
same,growth at 50 µM,OVCAR-8,-16%
same,growth at 50 µM,NCI-H226 [11],4%
same,GI50,ACHN,1000 nM
same,TGI,ACHN,> 50000 nM
same,CC50,ACHN,> 50000 nM
same,growth at 5 µM,COLO 205 [12],-89%
same,GI50,COLO 205 [13],937 nM
same,LC50 (concentration killing 50% of cells),COLO 205 [13],3140 nM
same,TGI,COLO 205 [13],1720 nM
same,growth at 0.05 µM,[14],100%
same,growth at 0.005 µM,CCRF-CEM [15],101%
same,growth at 5 µM,HCT-15,10%
same,GI50,SR,932 nM
same,TGI,SR,2800 nM
same,CC50,SR,> 50000 nM
same,growth at 0.005 µM,A498 [16],87%
same,GI50,BT-549,1680 nM
same,LC50 (50% lethal concentration),BT-549,> 50000 nM
same,TGI,BT-549,27600 nM
same,growth at 0.05 µM,CAKI-1,93%
COc1cc(-c2nn(-c3cccc(NC(=O)Nc4cccc(C(F)(F)F)c4)c3)cc2-c2ccncc2)ccc1Cl,growth at 5 µM,[1],-23%
same,growth at 5 µM,Malme-3M,-44%
same,growth at 10 µM,MDA-MB-231,-28.8%
same,growth at 0.005 µM,U-251,97%
same,growth at 10 µM,HCT-116,0.06%
same,GI50,KM12,573 nM
same,IC50,KM12,570 nM
same,TGI,KM12,1980 nM
same,CC50,KM12,> 50000 nM
same,growth at 10 µM,A498 [2],-5.17%
same,growth at 0.005 µM,A549,97%
same,growth at 50 µM,UACC-62,-87%
same,growth at 5 µM,NCI-H460 [3],-11%
same,growth at 0.5 µM,SK-MEL-2,97%
same,growth at 0.5 µM,MOLT-4,74%
same,growth at 0.05 µM,UO-31,79%
same,growth at 0.05 µM,DU-145,101%
same,growth at 5 µM,LOX IMVI,-75%
same,growth at 10 µM,MCF7 [4],-6.3%
same,growth at 50 µM,[5],-9%
same,GI50,T47D,1650 nM
same,TGI,T47D,> 50000 nM
same,CC50,T47D,50000 nM
same,growth at 0.5 µM,MCF7 [6],60%
same,growth at 50 µM,[7],-79%
same,growth at 0.005 µM,NCI-H226 [8],100%
same,growth at 10 µM,CCRF-CEM [9],-9.68%
same,GI50,NCI-H460 [10],763 nM
same,LC50,NCI-H460 [10],> 50000 nM
same,TGI,NCI-H460 [10],3530 nM
same,GI50,SF-539,890 nM
same,LC50 (concentration killing 50% of cells),SF-539,21000 nM
same,TGI,SF-539,2420 nM
same,growth at 50 µM,OVCAR-8,-24%
same,growth at 50 µM,NCI-H226 [11],7%
same,GI50,ACHN,656 nM
same,TGI,ACHN,3720 nM
same,CC50,ACHN,> 50000 nM
same,growth at 5 µM,COLO 205 [12],-78%
same,GI50,COLO 205 [13],894 nM
same,LC50 (concentration killing 50% of cells),COLO 205 [13],3430 nM
same,TGI,COLO 205 [13],1750 nM
same,growth at 0.05 µM,[14],98%
same,growth at 0.005 µM,CCRF-CEM [15],104%
same,growth at 5 µM,HCT-15,1%
same,GI50,SR,886 nM
same,TGI,SR,2840 nM
same,CC50,SR,> 50000 nM
same,growth at 0.005 µM,A498 [16],92%
same,GI50,BT-549,1250 nM
same,LC50 (50% lethal concentration),BT-549,50000 nM
same,TGI,BT-549,3810 nM
same,growth at 0.05 µM,CAKI-1,98%
